# Experimental data reported in patent US20110300115A1, “USE OF INDUCTOR AGENTS GSE24.2 FOR PRODUCING PHARMACEUTICAL COMPOSITIONS FOR TREATING ILLNESSES RELATING TO CELLULAR SENESCENCE” (priority 2007, published 2011).
# Experiments:
# hTR promoter = assay: hTR-luc reporter, 293T cells; format: cell-based, human; conditions: luciferase 24 h after transfection
# Method: Also, cisplatinum stimulates the promoter's activity in GSE24-2 cells more than in the control cells (FIG. 2B). […] No effect was observed of the expression of GSE24-2 on the promoter hTR^9 using cells expressing DKC or GSE24-2 (FIG. 2C).
# Transfection and analysis of gene expression. The 293T cells were transfected transiently using the calcium phosphate method, as described previously^39. The total amount of DNA was maintained constant at 10 μg per million cells. The X-DC cells were transfected transiently by electroporation with 3 μg of pLNCX-GSE24-2 per million cells. The cells VA13 MEFs were transfected with […] of DNA/per million cells using lipofectamine plus (Invitrogen), following the manufacturer's instructions. The protein extracts were prepared and luciferase measured using a commercial kit (Promega). Each test was carried out in triplicate and the experiments were repeated three times. The efficiency of transfection was corrected by co-transfection of the plasmid p-CMV-Renilla.
# [1] = test system: telomerase activity of 293T cell extracts; assay: in vitro test of telomerase activity inhibition using cisplatinum (TRAP assay, telomeric probe); format: biochemical; conditions: 293T cell extracts and telomere probe treated in vitro with cisplatinum; rising amounts of peptide
# Method: This description for the first time describes use of the previously described peptide GSE 24.2 in an in vitro test of telomerase activity inhibition using cisplatinum with cell extracts from 293T cells and a telomere probe treated with cisplatinum. […] Additionally, the possible bond of the peptide GSE24-2 to the telomere sequence was analysed using gel shift tests, with an oligonucleotide that forms a loop (TEL1) which reconstructs the double chain sequence of the telomere with a small 3′ hanging sequence^41.
# Production and purification of the peptide GSE24-2: The DH5α cells of E. coli were transformed with the vector pGATEV GSE24-2 and the lysates were prepared as described previously^33. The fusion protein was purified with glutathione-sepharose and the purity was analysed by means of gel electrophoresis. The GSE24-2 was obtained following digestion with the protease TEV following the manufacturer's instructions. Routinely, 90% was obtained of the digested protein according to what was obtained in SDS-PAGE electrophoresis. The protein was passed twice through a Hi-Trap Ni-NTA column in order to discard polyhistidine tails, undigested protein, TEV protease, and impurities.
# Telomere repeat amplification protocol (TRAP). Telomerase activity was measured using the TRAPeze^37 telomerase detection kit (Intergen, Purchase, USA) following the manufacturer's instructions. […]
Molecule,activity of the hTR promoter (hTR promoter),telomerase activity of extracts under inhibition by cisplatinum [1]
O=C1c2ccccc2-c2n[nH]c3cccc1c23 [SP60125],capable of activating the activity of this promoter,–
"peptide GSE24-2: purified peptide GSE24-2 (SEQ ID NO2), fragment of dyskerin, produced in E. coli as fusion protein and cleaved with TEV protease (GFINLDKPSNPSSHEVVAWIRRILRVEKTGHSGTLDPKVTGCLIVCIERATRLVK; listed as Homo sapiens)",–,protect the telomerase activity of the extracts
